{"source": "PubChem BioAssay AID2060882", "about": "(Molecular Pharmacology Branch, DTP, NCI, 2025)", "test_system": "898857-211-R-J1-PDC complex spheroids, growth % test/control", "assay": "Anticancer human tumor 898857-211-R-J1-PDC patient-derived melanoma cell line growth inhibition [RAS]", "details": "for IC50: curve of first compound; for viability, T/C: stronger effect = lower value", "how_it_was_run": "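Multi-cell-type spheroids: tumor cells plus HUVEC endothelial cells and mesenchymal stem cells. RAS-pathway inhibitors were combined with targeted agents, each dosed in half-log steps down from clinical Cmax, or from 10 microM when Cmax was unknown.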"}
{"compound": "CCc1c2c(nc3ccc(O)cc13)-c1cc3c(c(=O)n1C2)COC(=O)[C@]3(O)CC", "note": "+ C#Cc1c(F)ccc2cc(O)cc(-c3ncc4c(N5CC6CCC(C5)N6)nc(OCC56CCCN5CC(F)C6)nc4c3F)c12;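 further: spheroids exposed to compound for seven days before readout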;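 on viability, T/C: 100% = DMSO vehicle control wells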", "values": [{"measurement": "IC50", "setting": "second compound 0.0316 µM", "value": 4.7, "unit": "nM"}, {"measurement": "IC50", "setting": "second compound 0.1 µM", "value": 4.58, "unit": "nM"}, {"measurement": "IC50", "setting": "second compound 0.316 µM", "value": 5.12, "unit": "nM"}, {"measurement": "IC50", "setting": "second compound 1 µM", "value": 4.9, "unit": "nM"}, {"measurement": "IC50", "setting": "second compound 3.16 µM", "value": 5.35, "unit": "nM"}, {"measurement": "IC50", "setting": "second compound 10 µM", "value": 1.04, "unit": "nM"}, {"measurement": "viability, T/C", "setting": "second compound 0.0316 µM, first compound 0.000949 µM", "value": 109, "unit": "%"}, {"measurement": "viability, T/C", "setting": "second compound 0.0316 µM, first compound 0.003 µM", "value": 63.3, "unit": "%"}, {"measurement": "viability, T/C", "setting": "second compound 0.0316 µM, first compound 0.00949 µM", "value": 30, "unit": "%"}, {"measurement": "viability, T/C", "setting": "second compound 0.0316 µM, first compound 0.03 µM", "value": 11.4, "unit": "%"}, {"measurement": "viability, T/C", "setting": "second compound 0.0316 µM, first compound 0.0949 µM", "value": 9.62, "unit": "%"}, {"measurement": "viability, T/C", "setting": "second compound 0.0316 µM, first compound 0.3 µM", "value": 9.76, "unit": "%"}, {"measurement": "viability, T/C", "setting": "second compound 0.1 µM, first compound 0.000949 µM", "value": 94.1, "unit": "%"}, {"measurement": "viability, T/C", "setting": "second compound 0.1 µM, first compound 0.003 µM", "value": 61.4, "unit": "%"}, {"measurement": "viability, T/C", "setting": "second compound 0.1 µM, first compound 0.00949 µM", "value": 30.9, "unit": "%"}, {"measurement": "viability, T/C", "setting": "second compound 0.1 µM, first compound 0.03 µM", "value": 10.3, "unit": "%"}, {"measurement": "viability, T/C", "setting": "second compound 0.1 µM, first compound 0.0949 µM", "value": 8.95, "unit": "%"}, {"measurement": "viability, T/C", "setting": "second compound 0.1 µM, first compound 0.3 µM", "value": 8.77, "unit": "%"}, {"measurement": "viability, T/C", "setting": "second compound 0.316 µM, first compound 0.000949 µM", "value": 93, "unit": "%"}, {"measurement": "viability, T/C", "setting": "second compound 0.316 µM, first compound 0.003 µM", "value": 67.7, "unit": "%"}, {"measurement": "viability, T/C", "setting": "second compound 0.316 µM, first compound 0.00949 µM", "value": 30.2, "unit": "%"}, {"measurement": "viability, T/C", "setting": "second compound 0.316 µM, first compound 0.03 µM", "value": 8.72, "unit": "%"}, {"measurement": "viability, T/C", "setting": "second compound 0.316 µM, first compound 0.0949 µM", "value": 7.89, "unit": "%"}, {"measurement": "viability, T/C", "setting": "second compound 0.316 µM, first compound 0.3 µM", "value": 9.18, "unit": "%"}, {"measurement": "viability, T/C", "setting": "second compound 1 µM, first compound 0.000949 µM", "value": 86.7, "unit": "%"}, {"measurement": "viability, T/C", "setting": "second compound 1 µM, first compound 0.003 µM", "value": 62.4, "unit": "%"}, {"measurement": "viability, T/C", "setting": "second compound 1 µM, first compound 0.00949 µM", "value": 33.9, "unit": "%"}, {"measurement": "viability, T/C", "setting": "second compound 1 µM, first compound 0.03 µM", "value": 11.3, "unit": "%"}, {"measurement": "viability, T/C", "setting": "second compound 1 µM, first compound 0.0949 µM", "value": 8.52, "unit": "%"}, {"measurement": "viability, T/C", "setting": "second compound 1 µM, first compound 0.3 µM", "value": 8.89, "unit": "%"}, {"measurement": "viability, T/C", "setting": "second compound 3.16 µM, first compound 0.000949 µM", "value": 87.2, "unit": "%"}, {"measurement": "viability, T/C", "setting": "second compound 3.16 µM, first compound 0.003 µM", "value": 71.3, "unit": "%"}, {"measurement": "viability, T/C", "setting": "second compound 3.16 µM, first compound 0.00949 µM", "value": 29, "unit": "%"}, {"measurement": "viability, T/C", "setting": "second compound 3.16 µM, first compound 0.03 µM", "value": 10.9, "unit": "%"}, {"measurement": "viability, T/C", "setting": "second compound 3.16 µM, first compound 0.0949 µM", "value": 9.14, "unit": "%"}, {"measurement": "viability, T/C", "setting": "second compound 3.16 µM, first compound 0.3 µM", "value": 8.78, "unit": "%"}, {"measurement": "viability, T/C", "setting": "second compound 10 µM, first compound 0.000949 µM", "value": 51.6, "unit": "%"}, {"measurement": "viability, T/C", "setting": "second compound 10 µM, first compound 0.003 µM", "value": 29.9, "unit": "%"}, {"measurement": "viability, T/C", "setting": "second compound 10 µM, first compound 0.00949 µM", "value": 15, "unit": "%"}, {"measurement": "viability, T/C", "setting": "second compound 10 µM, first compound 0.03 µM", "value": 10.1, "unit": "%"}, {"measurement": "viability, T/C", "setting": "second compound 10 µM, first compound 0.0949 µM", "value": 9.3, "unit": "%"}, {"measurement": "viability, T/C", "setting": "second compound 10 µM, first compound 0.3 µM", "value": 7.33, "unit": "%"}]}
